Source: patent US20050215490A1, “Polyene polyketides and methods of treating bacterial infections” (Ecopia BioSciences, Inc., priority 2003, published 2005)
Converted amounts (≈) assume the structure as drawn. Read-outs that look alike come from different tables or passages of the source.

Tests used:
Assay type in all cases: cell-based
[1] = tested on: Staphylococcus aureus NRRL B-313 (ATCC™ 6538P); assay: MIC at different pH
Procedure: Antibacterial activitiy of Compounds.3, 4, 5, 6 and 7 are accomplished using the same method in a panel of bacterial strains and Vancomycin as positive control.
Antibacterial efficacy of Compounds 1, 2, 3, 4, 5 and 6 on bacterial strain Staphylococcus aureus NRRL B-313 (ATCC™ 6538P) was determined at different pH concentrations.

[2] = tested on: Bacillus subtilis (ATCC™ 23857); assay: MIC, broth microdilution (NCCLS M7-A5); conditions: ATCC23857, 18 h
Procedure: (§1) Antibacterial activity of Compounds 1 and 2 (Table 4) was measured by determining the minimal inhibitory concentration (MIC) necessary to obtain a complete inhibition of bacteria growth in eight indicator strains, namely Staphylococcus aureus (ATCC™ 6538P), Staphylococcus aureus MRS3 (ATCC™ 700699), Staphylococcus epidermidis (ATCC™ 12228), Bacillus subtilis (ATCC™ 23857), Bacillus megaterium (ATCC™ 14581), Enterococcus faecalis VRE-1 (ATCC™ 29212), Enterococcus faecalis VRE-2 (ATCC™ 51299) and Micrococcus luteus (ATCC™ 9341). Indicator strains preparation and MIC determination were performed according to the National Committee for Clinical Laboratory Standards (NCCLS) guideline M7-A5 Methods for Dilution Antimicrobial Susceptibility Tests for Bacteria That Grow Aerobically; Approved Standard-Fifth Edition. (NCCLS document M7-A5, ISBN 1-56238-394-9; NCCLS, 940 West Valley Road, Suite 1400, Wayne, Pa. 19087-1898 USA), the content of which is incorporated herein by reference.
(§2) Compounds 1 and 2 were prepared as 100× stock solution in DMSO, with concentrations ranging from 3.2 mg/ml to 0.00625 mg/ml (a two-fold dilution series over […]). An aliquot of each 100× stock solution was diluted 50-fold in test medium described below to give a set of ten (10) 2× solutions ranging from 64 to 0.125 μg/mL. 50 μl of each of the ten 2× solutions was aliquoted into the corresponding well of a 12-well row, with the final well reserved for medium alone control. Each test was made in duplicate.
(§3) Vancomycin (Sigma™) used as positive control compounds, was prepared as 2× stock solutions in sterile, double-distilled water (ddH2O) ranging from 64 μg/ml to […] (a two-fold dilution series over 10 points). An aliquot of 50 μl corresponding to each concentration (at 2×) was then transferred to 96-well microplates to obtain a series of eleven two-fold dilutions.
(§4) An isolated colony of each of the eight indicator strains was used to inoculate tubes containing 3 ml of test medium. Mueller-Hinton test medium was used for Staphylococcus aureus (ATCC™ 6538P), Staphylococcus aureus MRS3 (ATCC™ 700699), Staphylococcus epidermidis (ATCC™ 12228), Bacillus subtilis (ATCC™ 23857), Bacillus megaterium (ATCC™ 14581) and Micrococcus luteus (ATCC™ 9341) indicator strains, and BHI (Brain-Heart Infusion broth) test medium was used for Enterococcus faecalis VRE-1 (ATCC™ 29212) and Enterococcus faecalis VRE-2 (ATCC™ 51299) indicator strains. Cells were grown overnight at 28° C. with shaking. Inoculum density for each indicator strain was adjusted to OD600=0.1 in 5 ml 0.85% saline, then further diluted 1/100 in appropriate medium. 50 μl of the final dilution (in test medium) of each indicator strain was added to each well of a 12-well row. This brings the final dilution of the test article or control compound in solution to 1×. The final inoculum is approximately 5×10^5 CFU/ml.
(§5) The indicator strains were incubated with 11 concentrations of each of Compounds 1 and 2, Vancomycin (Sigma™) control compound and one media alone control. For MIC determination, assay plates were incubated at 35° C. for 18 hours.

[3] = tested on: Micrococcus luteus (ATCC™ 9341); assay: MIC, broth microdilution (NCCLS M7-A5); conditions: ATCC9341, 18 h
Procedure: as §1, §2, §3, §4, §5

[4] = tested on: Enterococcus faecalis VRE-1 (ATCC™ 29212); assay: MIC, broth microdilution (NCCLS M7-A5); conditions: 18 h
Procedure: as §1, §2, §3, §4, §5

[5] = tested on: Enterococcus faecalis VRE-2 (ATCC™ 51299); assay: MIC, broth microdilution (NCCLS M7-A5); conditions: 18 h
Procedure: as §1, §2, §3, §4, §5

[6] = tested on: Bacillus megaterium (ATCC™ 14581); assay: MIC, broth microdilution (NCCLS M7-A5); conditions: Priestia megaterium, ATCC14581, 18 h
Procedure: as §1, §2, §3, §4, §5

[7] = tested on: Staphylococcus epidermidis (ATCC™ 12228); assay: MIC, broth microdilution (NCCLS M7-A5); conditions: ATCC12228, 18 h
Procedure: as §1, §2, §3, §4, §5

[8] = tested on: Staphylococcus aureus MRS3 (ATCC™ 700699); assay: MIC, broth microdilution (NCCLS M7-A5); conditions: ATCC700699, 18 h
Procedure: as §1, §2, §3, §4, §5

[9] = tested on: Staphylococcus aureus (ATCC™ 6538P); assay: MIC, broth microdilution (NCCLS M7-A5); conditions: ATCC6538P, 18 h
Procedure: as §1, §2, §3, §4, §5

in vitro = conditions: sheep
Procedure: A. Toxicity: Acute toxicities were determined using CD-1 female mice (supplied by Charles River Laboratories, Wilmington, Mass.) having a bodyweight of 18-25 g, and about 6 weeks of age. Compounds 1 and 2 at doses ranging from 1 to 70 mg/kg (formulated in 20% propylene glycol/water for a total volume of 10 μL/g of weight) were administered intraperitoneal (i.p.) and intravenous (i.v.) to groups of 5 mice (5 mice per concentration, per mode of administration). Two groups of 3 mice were injected with vehicle only. Mice were observed immediately after injection, within 4 hours and once a day for the subsequent days. Acute toxicity studies of Compound 1 in mice indicated no observable effect and high dose tolerability: 70 mg/kg intraperitoneal and 50 mg/kg intravenous (an MTD of 250 mg/kg was also determined by oral administration). […] In vitro Haemolytic activity results are also shown in Table 7, along with the in vivo toxicity and efficacy of Compound 1.

[10] = S. aureus ATCC 6538P, pH 5.0, read-out: MIC
[11] = S. aureus ATCC 6538P, pH 6.0, read-out: MIC
[12] = S. aureus ATCC 6538P, pH 7.0, read-out: MIC

| Compound | MIC [1, 10] [µg/mL] | MIC [1, 11] [µg/mL] | MIC [1, 12] [µg/mL] | other results |
| --- | --- | --- | --- | --- |
| COC(=O)C1OC(OC(/C(C)=C/C(C)CCC/C=C/C(C)C/C=C/CCCN(C)C(=N)N)C(C)/C=C/C=C/C=C/C=C/C=C(\C)C(=O)NC2=C(O)CCC2=O)C(O)C(O)C1O (stereo not shown) [Compound 3, 3,4,5-trihydroxy-6-[1-[11-(2-hydroxy-5-oxocyclopent-1-enylcarbamoyl)-1-methyldodeca-2,4,6,8,10-pentaenyl]-2,4,10-trimethyl-16-(N-methyl-guanidino)-hexadeca-2,8,12-trienyloxy]-tetrahydropyran-2-carboxylic acid methyl ester] | 2 (≈ 2.35 µM) | 4 to 8 (≈ 4.7 to 9.4 µM) | 16 (≈ 18.8 µM) |  |
| CC(=O)NC(=N)N(C)CCC/C=C/CC(C)/C=C/CCCC(C)/C=C(\C)C(OC1OC(C(=O)O)C(O)C(O)C1O)C(C)/C=C/C=C/C=C/C=C/C=C(\C)C(=O)NC1=C(O)CCC1=O (stereo not shown) [Compound 6, 6-{16-(N′-acetyl-N-methylguanidino)-1-[11-(2-hydroxy-5-oxocyclopent-1-enylcarbamoyl)-1-methyldodeca-2,4,6,8,10-pentaenyl]-2,4,10-trimethylhexadeca-2,8,12-trienyloxy}-3,4,5-trihydroxytetrahydropyran-2-carboxylic acid] | 0.25 (≈ 0.284 µM) | 0.5 (≈ 0.569 µM) | 2 (≈ 2.28 µM) |  |
| CN[C@H](CC(C)C)C(=O)N[C@H]1C(=O)N[C@@H](CC(N)=O)C(=O)N[C@H]2C(=O)N[C@H]3C(=O)N[C@H](C(=O)N[C@H](C(=O)O)c4cc(O)cc(O)c4-c4cc3ccc4O)[C@H](O)c3ccc(c(Cl)c3)Oc3cc2cc(c3O[C@@H]2O[C@H](CO)[C@@H](O)[C@H](O)[C@H]2O[C@H]2C[C@](C)(N)[C@H](O)[C@H](C)O2)Oc2ccc(cc2Cl)[C@H]1O [Vancomycin, reference compound] |  |  |  | MIC [2]: 0.25 µg/mL (≈ 0.173 µM); MIC [3]: 1 µg/mL (≈ 0.69 µM); MIC [4]: 4 µg/mL (≈ 2.76 µM); MIC [5]: 8 to 16 µg/mL (≈ 5.52 to 11 µM); MIC [6]: 0.125 µg/mL (≈ 0.0863 µM); MIC [7]: 2 µg/mL (≈ 1.38 µM); MIC [8]: 4 µg/mL (≈ 2.76 µM); MIC [9]: 2 µg/mL (≈ 1.38 µM); MIC ([1]; pH 5): 1 µg/mL (≈ 0.69 µM); MIC ([1]; pH 6): 1 µg/mL (≈ 0.69 µM); MIC ([1]; pH 7): 1 µg/mL (≈ 0.69 µM) |
| COC(=O)C1OC(OC(C(C)=CC(C)CCCC=CC(C)CC=CCCCN(C)C(=N)N)C(C)C=CC=CC=CC=CC=C(C)C(=O)NC2=C(OC)CCC2=O)C(O)C(O)C1O (stereo not shown) [Compound 5, 3,4,5-trihydroxy-6-[1-[11-(2-methoxy-5-oxo-cyclopent-1-enylcarbamoyl)-1-methyldodeca-2,4,6,8,10-pentaenyl]-2,4,10-trimethyl-16-(N-methyl-guanidino)-hexadeca-2,8,12-trienyloxy]-tetrahydropyran-2-carboxylic acid methyl ester] | 2 (≈ 2.31 µM) | 4 (≈ 4.62 µM) | 4 (≈ 4.62 µM) |  |
| C\C(=C/C=C/C=C/C=C/C=C/C(C)C(OC1OC(C(=O)O)C(O)C(O)C1O)/C(C)=C/C(C)CCC/C=C/C(C)C/C=C/CCCN(C)C(=N)N)C(=O)O (stereo not shown) [Compound 7, 6-[1-(11-carboxy-1-methyldodeca-2,4,5,8,10-pentaenyl)-2,4,10-trimethyl-16-(N-methylguanidino)-hexadeca-2,8,12-trienyloxy]-3,4,5-trihydroxy-tetrahydropyran-2-carboxylic acid] |  |  | 32 to 64 (≈ 43.1 to 86.3 µM) |  |
| C[C@@H]1[C@H](O)[C@@H](C)/C=C/C=C/C=C/C=C/C=C/C=C/C=C/[C@H](O[C@@H]2O[C@H](C)[C@@H](O)[C@H](N)[C@@H]2O)C[C@@H]2O[C@](O)(C[C@@H](O)C[C@@H](O)[C@H](O)CC[C@@H](O)C[C@@H](O)CC(=O)O[C@H]1C)C[C@H](O)[C@H]2C(=O)O [Amphotericin, reference compound] |  |  |  | EC50 (in vitro): 3 µg/mL (≈ 3.25 µM) |
| COC1=C(NC(=O)/C(C)=C/C=C/C=C/C=C/C=C/C(C)C(OC2OC(C(=O)O)C(O)C(O)C2O)/C(C)=C/C(C)CCC/C=C/C(C)C/C=C/CCCN(C)C(=N)N)C(=O)CC1 (stereo not shown) [Compound 4, 3,4,5-trihydroxy-6-[1-[11-(2-methoxy-5-oxo-cyclopent-1-enylcarbamoyl)-1-methyldodeca-2,4,6,8,10-pentaenyl]-2,4,10-trimethyl-16-(N-methyl-guanidino)-hexadeca-2,8,12-trienyloxy]-tetrahydropyran-2-carboxylic acid] | 2 (≈ 2.35 µM) | 2 (≈ 2.35 µM) | 2 (≈ 2.35 µM) |  |
